From US11147272B2, “Pyridone compounds and agricultural and horticultural fungicides comprising the same as active ingredients” (MITSUI CHEMICALS AGRO, INC., priority 2017, dated 2021)

How the values were obtained:
Magnaporthe grisea = assay: whole plant or invertebrate; type: in vivo; conditions: for Test A control value class: class of control value
Alternaia brassicicola = assay: Test Example C: Alternaria sooty spot on cabbage; type: in vivo
Excerpt: Seeds of a test plant (cabbage variety: Shikidori) were planted and cultivated until the cotyledons extended.
<Control Value> Control value=100{1−(n/3)}

Puccinia recondita = assay: Test Example E: Brown rust on wheat; type: in vivo
Phytophthora infestans = assay: whole plant or invertebrate; type: in vivo; conditions: for Test F control value class: class of control value
Botrytis cinerea = assay: Test Example B: Gray mold on tomato; conditions: for Test B control value class: class of control value
Plasmopara viticola = assay: Test Example G: Downy mildew on vine; conditions: for Test G control value: 7 to 10 days after inoculation; for Test G control value class: Downy mildew on vine (Neomuscat), 2.5 ml/pot, assessed 7 to 10 days after inoculation
[1] = system: Colletotrichum orbiculare; assay: Test Example H: Anthracnose on cucumber; conditions: for Test H control value: 6 to 10 days after inoculation; for Test H control value class: Anthracnose on cucumber (Sagami Hanjiro), 2.5 ml/pot, assessed 6 to 10 days after inoculation
[2] = system: Blumeria graminis f. sp. hordei; assay: Test Example D: Powdery mildew on barley; conditions: for Test D control value class: class of control value
[3] = Blast on rice, control value class
[4] = Alternaria sooty spot on cabbage, control value class
[5] = Brown rust on wheat, control value class
[6] = Late blight on tomato, control value class
[7] = Gray mold on tomato, control value class
[8] = Downy mildew on vine, 250 ppm spray
[9] = Anthracnose on cucumber, 250 ppm spray
[10] = Powdery mildew on barley, control value class
[11] = 250 ppm drug solution sprayed on test plant
[12] = 250 ppm drug solution sprayed (2.5 ml/pot), grape Neomuscat
[13] = 250 ppm drug solution sprayed (2.5 ml/pot), cucumber Sagami Hanjiro
[14] = Alternaria sooty spot on cabbage, class of control value
[15] = Brown rust on wheat, class of control value

SMILES | Test A control value (Magnaporthe grisea; [3]) | Test C control value (Alternaia brassicicola; [4]) | Test E control value (Puccinia recondita; [5]) | Test F control value (Phytophthora infestans; [6]) | Test B control value (Botrytis cinerea; [7]) | Test G control value (Plasmopara viticola; [8]) | Test H control value [1, 9] | Test D control value [2, 10] | Test A control value (Magnaporthe grisea; [11]) | Test C control value (Alternaia brassicicola; [11]) | Test E control value (Puccinia recondita; [11]) | Test F control value (Phytophthora infestans; [11]) | Test B control value (Botrytis cinerea; [11]) | Test G control value (Plasmopara viticola; [12]) | Test H control value [1, 13] | Test D control value [2, 11] | also measured
CCn1c(-c2ccc(Br)cc2Cl)c(CC(C)C)cc(Br)c1=O [compound 237] | L (50% or less control value) | H (more than 50% control value) | H (more than 50% control value) | L (50% or less control value) | H (more than 50% control value) | L (50% or less control value) | L (50% or less control value) | H (more than 50% control value) |  |  |  |  |  |  |  |  | 
CCCc1cc(Cl)c(=O)n(C)c1-c1ccc(OC)cc1Br [compound 417] |  |  |  |  |  |  |  |  | L (50% or less control value) | H (more than 50% control value) | H (more than 50% control value) | L (50% or less control value) | H (more than 50% control value) | L (50% or less control value) | H (more than 50% control value) | L (50% or less control value) | 
C=CCOc1cccc(F)c1-c1c(CC(C)C)cc(Cl)c(=O)n1CC [compound 104] |  |  |  |  |  |  |  |  |  |  |  |  |  |  |  |  | Test A control value class (Magnaporthe grisea; Blast on rice): H (more than 50% control value); Test C control value class (Alternaia brassicicola; [14]): L (50% or less control value); Test E control value class (Puccinia recondita; [15]): L (50% or less control value); Test F control value class (Phytophthora infestans; Late blight on tomato): L (50% or less control value); Test B control value class (Botrytis cinerea; Gray mold on tomato): H (more than 50% control value); Test G control value class (Plasmopara viticola; 250 ppm spray): H (more than 50% control value); Test H control value class ([1]; 250 ppm spray): H (more than 50% control value); Test D control value class ([2]; Powdery mildew on barley): H (more than 50% control value)
COc1cc(F)c(-c2c(C(OC)C(C)C)cc(Cl)c(=O)n2C)c(F)c1 (centres unmarked) [compound 498] |  |  |  |  |  |  |  |  | H (more than 50% control value) | H (more than 50% control value) | H (more than 50% control value) | L (50% or less control value) | H (more than 50% control value) | L (50% or less control value) | H (more than 50% control value) | L (50% or less control value) | 
CCn1c(-c2ccc(F)cc2Br)c(CC(C)C)ccc1=O [compound 199] | H (more than 50% control value) | H (more than 50% control value) | H (more than 50% control value) | H (more than 50% control value) | H (more than 50% control value) | H (more than 50% control value) | H (more than 50% control value) | H (more than 50% control value) |  |  |  |  |  |  |  |  | 
CCn1c(-c2c(F)cccc2F)c(C(C)(O)C(C)C)cc(Cl)c1=O (centres unmarked) [Compound No. 183, 3-chloro-6-(2,6-difluorophenyl)-1-ethyl-5-(2-hydroxy-3-methylbutan-2-yl)pyridin-2(1H)-one] |  |  |  |  |  |  |  |  |  |  |  |  |  |  |  |  | pest or weed control at 250 µg/mL (Magnaporthe grisea; Pyricularia oryzae, in Oryza sativa, read-out: Test A control value class): > 50%; pest or weed control at 250 µg/mL (Alternaia brassicicola; Brassica oleracea, topical, Alternaria sooty spot on cabbage, class of control value, read-out: Test C control value class): > 50%; pest or weed control at 250 µg/mL (Puccinia recondita; Puccinia recondita, topical, Brown rust on wheat, class of control value, read-out: Test E control value class): > 50%; pest or weed control at 250 µg/mL (Phytophthora infestans; Phytophthora infestans, in Solanum lycopersicum, topical, read-out: Test F control value class): > 50%; pest or weed control at 250 µg/mL (Botrytis cinerea; Botrytis cinerea, in Solanum lycopersicum, topical, read-out: Test B control value class): > 50%; pest or weed control at 250 ppm (Plasmopara viticola; Plasmopara viticola, topical, read-out: Test G control value class): > 50%; pest or weed control at 250 ppm ([1]; Colletotrichum orbiculare, in Cucumis sativus, topical, read-out: Test H control value class): > 50%; pest or weed control at 250 µg/mL ([2]; Blumeria graminis, in Hordeum vulgare, topical, read-out: Test D control value class): > 50%
CCCc1cc(Br)c(=O)n(CC)c1-c1ccc(OC)cc1C [compound 413] |  |  |  |  |  |  |  |  | H (more than 50% control value) | H (more than 50% control value) | H (more than 50% control value) | L (50% or less control value) | H (more than 50% control value) | L (50% or less control value) | H (more than 50% control value) | L (50% or less control value) | 
CCn1c(-c2ccc(F)cc2)c(CC(C)C)cc(Cl)c1=O [compound 149] |  |  |  |  |  |  |  |  |  |  |  |  |  |  |  |  | Test A control value class (Magnaporthe grisea; Blast on rice): H (more than 50% control value); Test C control value class (Alternaia brassicicola; [14]): H (more than 50% control value); Test E control value class (Puccinia recondita; [15]): H (more than 50% control value); Test F control value class (Phytophthora infestans; Late blight on tomato): L (50% or less control value); Test B control value class (Botrytis cinerea; Gray mold on tomato): H (more than 50% control value); Test G control value class (Plasmopara viticola; 250 ppm spray): H (more than 50% control value); Test H control value class ([1]; 250 ppm spray): H (more than 50% control value); Test D control value class ([2]; Powdery mildew on barley): H (more than 50% control value)
CCCc1cc(Cl)c(=O)n(CC)c1-c1ccc(OC)cc1C [compound 412] |  |  |  |  |  |  |  |  | H (more than 50% control value) | H (more than 50% control value) | H (more than 50% control value) | H (more than 50% control value) | H (more than 50% control value) | L (50% or less control value) | H (more than 50% control value) | H (more than 50% control value) | 
CCc1cc(Br)c(=O)n(C)c1-c1ccc(F)cc1Cl [compound 317] | L (50% or less control value) | H (more than 50% control value) | H (more than 50% control value) | H (more than 50% control value) | H (more than 50% control value) | H (more than 50% control value) | H (more than 50% control value) | L (50% or less control value) |  |  |  |  |  |  |  |  | 
CCc1cc(Cl)c(=O)n(CC)c1-c1ccc(OC)cc1Br [compound 345] | H (more than 50% control value) | H (more than 50% control value) | H (more than 50% control value) | L (50% or less control value) | H (more than 50% control value) | H (more than 50% control value) | H (more than 50% control value) | L (50% or less control value) |  |  |  |  |  |  |  |  | 
CCCc1cc(Br)c(=O)n(CC(F)F)c1-c1c(F)cccc1F [compound 493] |  |  |  |  |  |  |  |  | H (more than 50% control value) | H (more than 50% control value) | H (more than 50% control value) | L (50% or less control value) | H (more than 50% control value) | H (more than 50% control value) | H (more than 50% control value) | H (more than 50% control value) | 
CCC(OC)c1cc(Cl)c(=O)n(CC)c1-c1c(F)cc(OC)cc1F (centres unmarked) [compound 48] |  |  |  |  |  |  |  |  |  |  |  |  |  |  |  |  | Test A control value class (Magnaporthe grisea; Blast on rice): H (more than 50% control value); Test C control value class (Alternaia brassicicola; [14]): H (more than 50% control value); Test E control value class (Puccinia recondita; [15]): H (more than 50% control value); Test F control value class (Phytophthora infestans; Late blight on tomato): L (50% or less control value); Test B control value class (Botrytis cinerea; Gray mold on tomato): H (more than 50% control value); Test G control value class (Plasmopara viticola; 250 ppm spray): H (more than 50% control value); Test H control value class ([1]; 250 ppm spray): H (more than 50% control value); Test D control value class ([2]; Powdery mildew on barley): H (more than 50% control value)
CCCC1=C(c2ccc(F)cc2Cl)N(C)C(=O)CC1 [compound 323] | L (50% or less control value) | L (50% or less control value) | L (50% or less control value) | L (50% or less control value) | H (more than 50% control value) | L (50% or less control value) | L (50% or less control value) | L (50% or less control value) |  |  |  |  |  |  |  |  | 
CCCCCCCCc1cc(Br)c(=O)n(CC)c1-c1ccc(F)cc1Cl [compound 272] | L (50% or less control value) | L (50% or less control value) | H (more than 50% control value) | L (50% or less control value) | L (50% or less control value) | L (50% or less control value) | L (50% or less control value) | L (50% or less control value) |  |  |  |  |  |  |  |  | 
CCc1ccc(=O)n(CC)c1-c1ccc(OC)cc1Br [compound 344] | L (50% or less control value) | H (more than 50% control value) | H (more than 50% control value) | L (50% or less control value) | H (more than 50% control value) | L (50% or less control value) | L (50% or less control value) | L (50% or less control value) |  |  |  |  |  |  |  |  | 
